Reference: US6423352B1 (priority 1998, dated 2002)
Where two headings read alike, the source gives them in different places.

What was measured:
Format in all cases: in vivo
Phytophthora infestans [1] = settings: for % diseased leaf area, late blight tomato, 5 d: Example 17, none 81; for % diseased leaf area, solvent control: Example 12, late blight in tomato, untreated control 81
Phytophthora infestans [2] = settings: for % diseased leaf area, late blight potato, 5 d: Example 17, none 100; for % Protection, late blight in potato / Diseased leaf area, late blight in potato: Example 2; for Diseased leaf area, late blight in potato: recorded 4 days post inoculation, untreated control 98
[3] = system: Erysiphe graminis tritici; test: powdery mildew in wheat: sprayed plants inoculated, diseased leaf area recorded; settings: for % diseased leaf area, powdery mildew wheat, 8 d: Example 17, none 69; for % diseased leaf area, wheat powdery mildew, 10 d: Example 14, solvent conc. 1%, inoculation three hours after spray, none (control) 50
Method: (§1) To test the efficacy of these extracts and suspensions, experiments were performed in which plants were sprayed using a fine glass atomizer with either Inula extract or with pure solvent as a control for the Inula extracts, with either Inula extract and emulsifier or with an emulsifier solution as a control for the emulsified Inula extracts, and with either Inula suspension or with water or emulsifier solution as a control for the Inula suspensions. Treated and control plants were then inoculated with a crop-respective fungal pathogen. After an incubation period, the extent of the infection was measured. Unless otherwise stated, percentage protection from the disease due to the treatment with the Inula extract or suspension was calculated as:
(§2) % control of the disease=[1−(% infection and treated plants/% infection in control plants)]×100.
The crop plants and pathogens used for inoculation are described in the following list.
Inoculation with P. infestants, P. cubensis, P. tabacina, P. viticola, B. cinera and C. fulvum was done by spraying a spore suspension in distilled water onto the upper leaf surfaces of the treated (and the control) plants. Inoculated plants were kept in a dew chamber at 18-20° C. in the dark for 16-20 hours and then in a growth chamber at 20° C. with 12 hours photoperiod. Inoculation with E. graminis and S. fuliginea was done by blowing spores over the treated (and control) plants. Inoculated plants were then kept in a growth chamber as above.
(§3) Disease records were visually estimated in the inoculated plants at 3-13 days after inoculation, depending on the crop and disease. Percentage leaf area occupied with disease symptoms or fungal colonies was recorded and given in the results section.

[4] = system: Pseudoperonospora cubensis; test: downy mildew in cucumber: sprayed plants inoculated, disease recorded; settings: Example 14; solvent conc. 1%; inoculation three hours after spray; none (control) 88
Method: as §1, §2
The crop plants and pathogens used for inoculation are described in the following list. […]
as §3

c1c[nH]cn1 [Imidazole only, imidazole]
% diseased leaf area, late blight tomato, 5 d (Phytophthora infestans [1]; imidazole only 0.12% pH 9.55): 95% | % diseased leaf area, late blight tomato, 5 d (Phytophthora infestans [1]; imidazole only 0.25% pH 9.70): 88% | % diseased leaf area, late blight tomato, 5 d (Phytophthora infestans [1]; imidazole only 0.5% pH 9.86): 69% | % diseased leaf area, late blight tomato, 5 d (Phytophthora infestans [1]; imidazole only 1% pH 9.95): 50% | % diseased leaf area, late blight potato, 5 d (Phytophthora infestans [2]; imidazole only 0.12% pH 9.55): 50% | % diseased leaf area, late blight potato, 5 d (Phytophthora infestans [2]; imidazole only 0.25% pH 9.70): 50% | % diseased leaf area, late blight potato, 5 d (Phytophthora infestans [2]; imidazole only 0.5% pH 9.86): 25% | % diseased leaf area, late blight potato, 5 d (Phytophthora infestans [2]; imidazole only 1% pH 9.95): 18% | % diseased leaf area, powdery mildew wheat, 8 d ([3]; imidazole only 0.12% pH 9.55): 63% | % diseased leaf area, powdery mildew wheat, 8 d ([3]; imidazole only 0.25% pH 9.70): 50% | % diseased leaf area, powdery mildew wheat, 8 d ([3]; imidazole only 0.5% pH 9.86): 23% | % diseased leaf area, powdery mildew wheat, 8 d ([3]; imidazole only 1% pH 9.95): 25%

N.O [NH4OH, ammonium hydroxide]
% Protection, late blight in potato (Phytophthora infestans [2]; NH4OH 1%): 0% | Diseased leaf area, late blight in potato (Phytophthora infestans [2]; NH4OH 1%): 100 | % Protection, late blight in potato (Phytophthora infestans [2]; NH4OH 2%): 0% | Diseased leaf area, late blight in potato (Phytophthora infestans [2]; NH4OH 2%): 100 | % Protection, late blight in potato (Phytophthora infestans [2]; NH4OH 4%): 0% | Diseased leaf area, late blight in potato (Phytophthora infestans [2]; NH4OH 4%): 100 | % Protection, late blight in potato (Phytophthora infestans [2]; NH4OH 8% (= 2% aqueous NH3)): 0% | Diseased leaf area, late blight in potato (Phytophthora infestans [2]; NH4OH 8% (= 2% aqueous NH3), inoculated 2 days after spray): 100

C1CNCCN1.O [piperazine hydrate]
% diseased leaf area, solvent control (Phytophthora infestans [1]; solvent alone 0.05M): 81% | % diseased leaf area, solvent control (Phytophthora infestans [1]; solvent alone 0.1M): 81%

C1CCNCC1 [piperidine]
% diseased leaf area, Tomato late blight, 4 d (Phytophthora infestans [1]; Example 14, solvent conc. 1%, inoculation three hours after spray, none (control) 88): 88% | % diseased leaf area, wheat powdery mildew, 10 d [3]: 25% | % diseased leaf area, cucumber downy mildew, 6 d [4]: 94%

tetraethylene
% diseased leaf area, Tomato late blight, 4 d (Phytophthora infestans [1]; in vivo): 63% | % diseased leaf area, wheat powdery mildew, 10 d [3]: 50% | % diseased leaf area, cucumber downy mildew, 6 d [4]: 31%
